Reference: patent US20250147039A1, “Compounds for complexation of rare earth elements and/or s-, p-, d- block metals, their coordination compounds, peptide conjugates, method of their preparation and use thereof” (USTAV ORGANICKE CHEMIE A BIOCHEMIE AV CR V.V.I., priority 2021, published 2025)

Tests used:
Type in all cases: physicochemical
[1] = Formation of 1,5-cz-[M(Lig)] from Lig and M^III ions (metal dependent click-zip) (Charts 4, 5); settings: for conversion to 1,5-cz-[M(Lig)], Bi^III: 4% DMSO in MOPS/NaOH buffer pH 7.0, TD728 in 50% i-PrOH; for conversion to 1,5-cz-[M(Lig)], Ga^III / conversion to 1,5-cz-[M(Lig)], In^III / conversion to 1,5-cz-[M(Lig)], Sc^III / conversion to 1,5-cz-[M(Lig)], Y^III: MOPS/NaOH buffer pH 7.0; for conversion to 1,5-cz-[M(Lig)], Sc^III / conversion to 1,5-cz-[M(Lig)], Y^III: TD728, TD827 in 50% i-PrOH; for conversion to 1,5-cz-[M(Lig)], Y^III: TD714 sum of two diastereoisomers
[2] = Formation of 1,5-cz-[M(Lig)] from Lig and M^II ions (metal dependent click-zip) (Charts 6, 7); settings: MOPS/NaOH buffer pH 7.0; for conversion to 1,5-cz-[M(Lig)], Ca^II / conversion to 1,5-cz-[M(Lig)], Cd^II / conversion to 1,5-cz-[M(Lig)], Pb^II: TD728 in 50% i-PrOH
[3] = Formation of 1,5-cz-[Lu(Lig)] from Lig (metal dependent click-zip) with various absolute concentrations (Chart 12)
[4] = pH dependent formation of 1,5- and 1,4-cz-Lig isomers from Lig (pH dependent click-zip) (Chart 13)
[5] = A: 1 hour at 80° C., 0.1M HClO4 (pH ~1)
[6] = A: 1 hour at 80° C., 1.0M HClO4 (pH ~0)
[7] = A: 1 hour at 80° C., pH 2.2, 50 mM aq. buffer
[8] = A: 1 hour at 80° C., pH 3.0, 50 mM aq. buffer
[9] = A: 1 hour at 80° C., pH 3.8, 50 mM aq. buffer
[10] = A: 1 hour at 80° C., pH 4.6, 50 mM aq. buffer
[11] = A: 1 hour at 80° C., pH 5.4, 50 mM aq. buffer
[12] = A: 1 hour at 80° C., pH 6.2, 50 mM aq. buffer
[13] = A: 1 hour at 80° C., pH 7.0, 50 mM aq. buffer
[14] = A: 1 hour at 80° C., pH 8.6, 50 mM aq. buffer
[15] = A: 1 hour at 80° C., pH 9.4, 50 mM aq. buffer
[16] = A: 1 hour at 80° C., pH 10.2, 50 mM aq. buffer
[17] = B: 1 day at 80° C., 0.1M HClO4 (pH ~1)
[18] = B: 1 day at 80° C., 1.0M HClO4 (pH ~0)

In the case of `C#Cc1cccc(CN2CCN(CC(=O)O)CCN(Cc3cc(-c4ccccc4)cc(CN=[N+]=[N-])n3)CCN(CC(=O)O)CC2)n1` [TD647], the “conversion to 1,5-cz-[M(Lig)], Bi^III” value ([1]; 1 week at 80° C.) was 73%, the “conversion to 1,5-cz-[M(Lig)], Ga^III” value ([1]; 1 week at 80° C.) was 0% and the “conversion to 1,5-cz-[M(Lig)], In^III” value ([1]; 1 week at 80° C.) was 8%. The “conversion to 1,5-cz-[M(Lig)], Sc^III” value ([1]; 1 week at 80° C.) was 35%, the “conversion to 1,5-cz-[M(Lig)], Y^III” value ([1]; 1 week at 80° C.) was 93% and the “conversion to 1,5-cz-[M(Lig)], Bi^III” value ([1]; 1 hour at 80° C.) was 29%. For the same compound, the “conversion to 1,5-cz-[M(Lig)], Ga^III” value ([1]; 1 hour at 80° C.) was 0%, the “conversion to 1,5-cz-[M(Lig)], In^III” value ([1]; 1 hour at 80° C.) was 0% and the “conversion to 1,5-cz-[M(Lig)], Sc^III” value ([1]; 1 hour at 80° C.) was 7%. The “conversion to 1,5-cz-[M(Lig)], Y^III” value ([1]; 1 hour at 80° C.) was 20%, the “conversion to 1,5-cz-[M(Lig)], Ba^II” value ([2]; 1 week at 80° C.) was 0% and the “conversion to 1,5-cz-[M(Lig)], Ni^II” value ([2]; 1 week at 80° C.) was 0%. For the same compound, the “conversion to 1,5-cz-[M(Lig)], Sr^II” value ([2]; 1 week at 80° C.) was 0%, the “conversion to 1,5-cz-[M(Lig)], Zn^II” value ([2]; 1 week at 80° C.) was 0% and the “conversion to 1,5-cz-[M(Lig)], Ca^II” value ([2]; 1 week at 80° C.) was 87%. For the same compound, the “conversion to 1,5-cz-[M(Lig)], Cd^II” value ([2]; 1 week at 80° C.) was 86%, the “conversion to 1,5-cz-[M(Lig)], Pb^II” value ([2]; 1 week at 80° C.) was 54% and the “conversion to 1,5-cz-[M(Lig)], Ba^II” value ([2]; 1 hour at 80° C.) was 0%. For the same compound, the “conversion to 1,5-cz-[M(Lig)], Ni^II” value ([2]; 1 hour at 80° C.) was 0%, the “conversion to 1,5-cz-[M(Lig)], Sr^II” value ([2]; 1 hour at 80° C.) was 0% and the “conversion to 1,5-cz-[M(Lig)], Zn^II” value ([2]; 1 hour at 80° C.) was 0%. The “conversion to 1,5-cz-[M(Lig)], Ca^II” value ([2]; 1 hour at 80° C.) was 16%, the “conversion to 1,5-cz-[M(Lig)], Pb^II” value ([2]; 1 hour at 80° C.) was 2% and the “conversion to 1,5-cz-[M(Lig)], Cd^II” value ([2]; 1 hour at 80° C., TD714 sum of two diastereoisomers) was 64%. For the same compound, the “conversion to 1,5-cz-[Lu(Lig)]” value ([3]; A: 1 hour at 80° C., Lig 5.0 × 10^0 mM, Lu^III 7.5 × 10^0 mM) was 74%, the “conversion to 1,5-cz-[Lu(Lig)]” value ([3]; A: 1 hour at 80° C., Lig 5.0 × 10^1 mM, Lu^III 7.5 × 10^1 mM) was 71% and the “conversion to 1,5-cz-[Lu(Lig)]” value ([3]; A: 1 hour at 80° C., Lig 5.0 × 10^−1 mM, Lu^III 7.5 × 10^−1 mM) was 70%. For the same compound, the “conversion to 1,5-cz-[Lu(Lig)]” value ([3]; A: 1 hour at 80° C., Lig 5.0 × 10^−2 mM, Lu^III 7.5 × 10^−2 mM) was 60%, the “conversion to 1,5-cz-[Lu(Lig)]” value ([3]; A: 1 hour at 80° C., Lig 5.0 × 10^−3 mM, Lu^III 7.5 × 10^−3 mM) was 15% and the “conversion to 1,5-cz-[Lu(Lig)]” value ([3]; B: 1 day at 80° C., Lig 5.0 × 10^0 mM, Lu^III 7.5 × 10^0 mM) was 96%. For the same compound, the “conversion to 1,5-cz-[Lu(Lig)]” value ([3]; B: 1 day at 80° C., Lig 5.0 × 10^1 mM, Lu^III 7.5 × 10^1 mM) was 84%, the “conversion to 1,5-cz-[Lu(Lig)]” value ([3]; B: 1 day at 80° C., Lig 5.0 × 10^−1 mM, Lu^III 7.5 × 10^−1 mM) was 97% and the “conversion to 1,5-cz-[Lu(Lig)]” value ([3]; B: 1 day at 80° C., Lig 5.0 × 10^−2 mM, Lu^III 7.5 × 10^−2 mM) was 96%. For the same compound, the “conversion to 1,5-cz-[Lu(Lig)]” value ([3]; B: 1 day at 80° C., Lig 5.0 × 10^−3 mM, Lu^III 7.5 × 10^−3 mM) was 59%, the “conversion to 1,5-cz-[Lu(Lig)]” value ([3]; C: 1 week at 80° C., Lig 5.0 × 10^0 mM, Lu^III 7.5 × 10^0 mM) was 96% and the “conversion to 1,5-cz-[Lu(Lig)]” value ([3]; C: 1 week at 80° C., Lig 5.0 × 10^1 mM, Lu^III 7.5 × 10^1 mM) was 86%. The “conversion to 1,5-cz-[Lu(Lig)]” value ([3]; C: 1 week at 80° C., Lig 5.0 × 10^−1 mM, Lu^III 7.5 × 10^−1 mM) was 97%, the “conversion to 1,5-cz-[Lu(Lig)]” value ([3]; C: 1 week at 80° C., Lig 5.0 × 10^−2 mM, Lu^III 7.5 × 10^−2 mM) was 96% and the “conversion to 1,5-cz-[Lu(Lig)]” value ([3]; C: 1 week at 80° C., Lig 5.0 × 10^−3 mM, Lu^III 7.5 × 10^−3 mM) was 57%. For the same compound, the “conversion to 1,4-cz-Lig isomer” value [4, 5] was 3%, the “conversion to 1,5-cz-Lig isomer” value [4, 5] was 44% and the “conversion to 1,4-cz-Lig isomer” value [4, 6] was 2%. The “conversion to 1,5-cz-Lig isomer” value [4, 6] was 9%, the “conversion to 1,4-cz-Lig isomer” value [4, 7] was 2% and the “conversion to 1,5-cz-Lig isomer” value [4, 7] was 17%. The “conversion to 1,4-cz-Lig isomer” value [4, 8] was 1%, the “conversion to 1,5-cz-Lig isomer” value [4, 8] was 6% and the “conversion to 1,4-cz-Lig isomer” value [4, 9] was 1%. The “conversion to 1,5-cz-Lig isomer” value [4, 9] was 1%, the “conversion to 1,4-cz-Lig isomer” value [4, 10] was 1% and the “conversion to 1,5-cz-Lig isomer” value [4, 10] was 1%. The “conversion to 1,4-cz-Lig isomer” value [4, 11] was 1%, the “conversion to 1,5-cz-Lig isomer” value [4, 11] was 1% and the “conversion to 1,4-cz-Lig isomer” value [4, 12] was 1%. For the same compound, the “conversion to 1,5-cz-Lig isomer” value [4, 12] was 1%, the “conversion to 1,4-cz-Lig isomer” value [4, 13] was 2% and the “conversion to 1,5-cz-Lig isomer” value [4, 13] was 1%. For the same compound, the “conversion to 1,4-cz-Lig isomer” value [4, 14] was 3%, the “conversion to 1,5-cz-Lig isomer” value [4, 14] was 2% and the “conversion to 1,4-cz-Lig isomer” value [4, 15] was 3%. The “conversion to 1,5-cz-Lig isomer” value [4, 15] was 8%, the “conversion to 1,4-cz-Lig isomer” value [4, 16] was 2% and the “conversion to 1,5-cz-Lig isomer” value [4, 16] was 17%. For the same compound, the “conversion to 1,4-cz-Lig isomer” value [4, 17] was 5%, the “conversion to 1,5-cz-Lig isomer” value [4, 17] was 91% and the “conversion to 1,4-cz-Lig isomer” value [4, 18] was 8%. For the same compound, the “conversion to 1,5-cz-Lig isomer” value [4, 18] was 72%.
